Measurements from ChEMBL document CHEMBL1201862, “PubChem BioAssay data set” (2004).
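48-hour exposure; five concentrations; linearly interpolated endpoints. GI50: concentration for 50% inhibition of growth.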 Active and inactive are the calls of the source. No stated cut-off is given here; in the data, active = GI50 up to about 1.1 µM and inactive = higher.

What was measured:
Test in all cases: DTP human tumour cell line panel, 48 h
786-0 = system: 786-0
ACHN = system: ACHN
HCT-15 = system: HCT-15
HL-60 = system: HL-60
HOP-62 = system: HOP-62
IGROV-1 = system: IGROV-1
K562 = system: K562
MCF7 = system: MCF7
MDA-MB-435 = system: MDA-MB-435
MDA-N = system: MDA-N
Malme-3M = system: Malme-3M
NCI-H23 = system: NCI-H23
NCI-H522 = system: NCI-H522
NCI/ADR-RES = system: NCI/ADR-RES
OVCAR-4 = system: OVCAR-4
SF-295 = system: SF-295
SK-OV-3 = system: SK-OV-3
TK-10 = system: TK-10

With C[C@H]1[C@H](C)N1CC(O)Cn1ccnc1[N+](=O)[O-] (some centres undefined) the GI50 (786-0) was > 100 µM (inactive), the GI50 (ACHN) was > 100 µM (inactive) and the GI50 (HCT-15) was greater than 100 µM. The GI50 (HL-60) was > 100 µM (inactive), the GI50 (HOP-62) was > 100 µM (inactive) and the GI50 (IGROV-1) was > 100 µM (inactive). The GI50 (K562) was > 100 µM (inactive), the GI50 (MCF7) was > 100 µM (inactive) and the GI50 (MDA-MB-435) was > 100 µM (inactive). For the same molecule, the GI50 (MDA-N) was > 100 µM (inactive), the GI50 (Malme-3M) was > 100 µM (inactive) and the GI50 (NCI-H23) was > 100 µM (inactive). The GI50 (NCI-H522) was > 100 µM (inactive), the GI50 (NCI/ADR-RES) was > 100 µM (inactive) and the GI50 (OVCAR-4) was > 100 µM (inactive). The GI50 (SF-295) was > 100 µM (inactive), the GI50 (SK-OV-3) was > 100 µM (inactive) and the GI50 (TK-10) was > 100 µM (inactive).
In the case of O=C(CCO)OCCCCCC/C=C\CCCCCC/C=C\CCCCCCCCOC(=O)CCO, the GI50 (786-0) is reported as 18.5 µM (inactive), the GI50 (ACHN) is reported as 23.9 µM (inactive) and the GI50 (HCT-15) is reported as 15.6 µM. For the same molecule, the GI50 (HL-60) was 12.2 µM (inactive), the GI50 (HOP-62) was 17.1 µM (inactive) and the GI50 (IGROV-1) was 17.2 µM (inactive). The GI50 (K562) was 15.8 µM (inactive), the GI50 (MCF7) was 15.7 µM (inactive) and the GI50 (MDA-MB-435) was 21.2 µM (inactive). For the same molecule, the GI50 (MDA-N) was 17.8 µM (inactive), the GI50 (Malme-3M) was 20.5 µM (inactive) and the GI50 (NCI-H23) was 17.9 µM (inactive). For the same molecule, the GI50 (NCI-H522) was 16.5 µM (inactive), the GI50 (NCI/ADR-RES) was 17.9 µM (inactive) and the GI50 (OVCAR-4) was 25.3 µM (inactive). For the same molecule, the GI50 (SF-295) was 18.3 µM (inactive), the GI50 (SK-OV-3) was 19.9 µM (inactive) and the GI50 (TK-10) was 17.7 µM (inactive).
CC(C)OP(=O)(OC(C)C)/C(C#N)=C/c1c[nH]c2ccccc12 was tested, and the GI50 (786-0) was > 100 µM (inactive), the GI50 (ACHN) was 86.3 µM (inactive) and the GI50 (HCT-15) was greater than 100 µM. For the same molecule, the GI50 (HL-60) was 19.1 µM (inactive), the GI50 (HOP-62) was > 100 µM (inactive) and the GI50 (IGROV-1) was > 100 µM (inactive). For the same molecule, the GI50 (K562) was > 100 µM (inactive), the GI50 (MCF7) was 28.7 µM (inactive) and the GI50 (MDA-MB-435) was 65.5 µM (inactive). The GI50 (MDA-N) was > 100 µM (inactive), the GI50 (Malme-3M) was 86.3 µM (inactive) and the GI50 (NCI-H23) was 46.2 µM (inactive). The GI50 (NCI-H522) was > 100 µM (inactive), the GI50 (NCI/ADR-RES) was 21.7 µM (inactive) and the GI50 (OVCAR-4) was 86.5 µM (inactive). The GI50 (SF-295) was 38.9 µM (inactive), the GI50 (SK-OV-3) was 92 µM (inactive) and the GI50 (TK-10) was > 100 µM (inactive).
With O=C1C=C(NCCc2cc(Br)c(O)c(Br)c2)C(=O)c2[nH]cnc21 the GI50 (786-0) was > 100 µM (inactive), the GI50 (ACHN) was 42.9 µM (inactive) and the GI50 (HCT-15) was 18 µM. For the same molecule, the GI50 (HL-60) was > 10 µM (inactive), the GI50 (HOP-62) was 38.6 µM (inactive) and the GI50 (IGROV-1) was 17.6 µM (inactive). For the same molecule, the GI50 (K562) was 14.9 µM (inactive), the GI50 (MCF7) was 22.9 µM (inactive) and the GI50 (MDA-MB-435) was 15.6 µM (inactive). The GI50 (MDA-N) was 18.6 µM (inactive), the GI50 (Malme-3M) was 15 µM (inactive) and the GI50 (NCI-H23) was 10.8 µM (inactive). For the same molecule, the GI50 (NCI-H522) was 21.2 µM (inactive), the GI50 (NCI/ADR-RES) was > 100 µM (inactive) and the GI50 (OVCAR-4) was 19.1 µM (inactive). For the same molecule, the GI50 (SF-295) was 30.5 µM (inactive), the GI50 (SK-OV-3) was 41.2 µM (inactive) and the GI50 (TK-10) was 89.7 µM (inactive).
In the case of O=C(O)Cc1ccc(Oc2nc3ccccc3nc2-c2cccs2)cc1, the GI50 (786-0) is reported as 80 µM (inactive), the GI50 (ACHN) is reported as 56.6 µM (inactive) and the GI50 (HCT-15) is reported as 35.3 µM. The GI50 (HL-60) was 55.8 µM (inactive), the GI50 (HOP-62) was > 100 µM (inactive) and the GI50 (IGROV-1) was 68.9 µM (inactive). The GI50 (K562) was 99.3 µM (inactive), the GI50 (MCF7) was 38.5 µM (inactive) and the GI50 (MDA-MB-435) was 92 µM (inactive). The GI50 (MDA-N) was 82.2 µM (inactive), the GI50 (Malme-3M) was > 100 µM (inactive) and the GI50 (NCI-H23) was 55.8 µM (inactive). For the same molecule, the GI50 (NCI-H522) was 65.2 µM (inactive), the GI50 (NCI/ADR-RES) was 60.5 µM (inactive) and the GI50 (OVCAR-4) was 51.1 µM (inactive). For the same molecule, the GI50 (SF-295) was 42.6 µM (inactive), the GI50 (SK-OV-3) was > 100 µM (inactive) and the GI50 (TK-10) was 95.1 µM (inactive).
For C[C@@H]1C[C@@H](O)[C@@]2(O)C13CC(=O)OC(C3)[C@@H](C)[C@@]2(C)CO (some centres undefined), the GI50 (786-0) was > 100 µM (inactive), the GI50 (ACHN) was > 100 µM (inactive) and the GI50 (HCT-15) was greater than 100 µM. The GI50 (HL-60) was > 100 µM (inactive), the GI50 (HOP-62) was > 100 µM (inactive) and the GI50 (IGROV-1) was > 100 µM (inactive). The GI50 (K562) was > 100 µM (inactive), the GI50 (MCF7) was > 100 µM (inactive) and the GI50 (MDA-MB-435) was > 100 µM (inactive). The GI50 (MDA-N) was > 100 µM (inactive), the GI50 (Malme-3M) was > 100 µM (inactive) and the GI50 (NCI-H23) was > 100 µM (inactive). For the same molecule, the GI50 (NCI-H522) was > 100 µM (inactive), the GI50 (NCI/ADR-RES) was > 100 µM (inactive) and the GI50 (OVCAR-4) was > 100 µM (inactive). For the same molecule, the GI50 (SF-295) was > 100 µM (inactive), the GI50 (SK-OV-3) was > 100 µM (inactive) and the GI50 (TK-10) was > 100 µM (inactive).
O=C1CC(n2ccnc2)c2c(Cl)sc(Cl)c21 (centres undefined) was tested, and the GI50 (786-0) was 6.79 µM (inactive), the GI50 (ACHN) was 18.1 µM (inactive) and the GI50 (HCT-15) was 14.2 µM. For the same molecule, the GI50 (HL-60) was 51.8 µM (inactive), the GI50 (HOP-62) was 18.7 µM (inactive) and the GI50 (IGROV-1) was 12.7 µM (inactive). For the same molecule, the GI50 (K562) was 7.89 µM (inactive), the GI50 (MCF7) was 4.94 µM (inactive) and the GI50 (MDA-MB-435) was 17.1 µM (inactive). The GI50 (MDA-N) was 16.2 µM (inactive), the GI50 (Malme-3M) was 17.4 µM (inactive) and the GI50 (NCI-H23) was 14.9 µM (inactive). For the same molecule, the GI50 (NCI-H522) was 6.31 µM (inactive), the GI50 (NCI/ADR-RES) was 23.8 µM (inactive) and the GI50 (OVCAR-4) was 19.5 µM (inactive). The GI50 (SF-295) was 27.4 µM (inactive), the GI50 (SK-OV-3) was 23.1 µM (inactive) and the GI50 (TK-10) was 20.2 µM (inactive).
O=C(CCN1CCCCC1)Nc1ccc2sc3ccccc3c(=O)c2n1 was tested, and the GI50 (786-0) was 11.8 µM (inactive), the GI50 (ACHN) was 10.2 µM (inactive) and the GI50 (HCT-15) was 15.1 µM. For the same molecule, the GI50 (HL-60) was 3.89 µM (inactive), the GI50 (HOP-62) was 13.1 µM (inactive) and the GI50 (IGROV-1) was 13.4 µM (inactive). The GI50 (K562) was 6.38 µM (inactive), the GI50 (MCF7) was 15.9 µM (inactive) and the GI50 (MDA-MB-435) was 13.1 µM (inactive). The GI50 (MDA-N) was 14.3 µM (inactive), the GI50 (Malme-3M) was 28 µM (inactive) and the GI50 (NCI-H23) was > 10 µM (inactive). For the same molecule, the GI50 (NCI-H522) was 12 µM (inactive), the GI50 (NCI/ADR-RES) was 7.67 µM (inactive) and the GI50 (OVCAR-4) was 16 µM (inactive). The GI50 (SF-295) was 18.1 µM (inactive), the GI50 (SK-OV-3) was 23.2 µM (inactive) and the GI50 (TK-10) was 15.7 µM (inactive).
